The text below walks through data of ChEMBL document CHEMBL1201862, “PubChem BioAssay data set” (2004).

Structures are written as SMILES.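 Compound exposure: 48 hours, 5 concentrations, 96-well plates. GI50 marks 50% less growth.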 The source made the active and inactive calls. Cut-off read from the data, not from the text of the source: active = GI50 up to about 1.1 µM and inactive = higher.

Some test systems named below: RXF 631; M19-MEL; LXFL 529; DMS-273; SNB-78; KM-20L2; HOP-18; XF498; DMS-114.
Holding throughout (assay): DTP human tumour cell line panel, 48 h

For `c1ccc2c(c1)C1=NCCN1c1ccccc1-2`, the GI50 in the assay on RXF 631 is 2.77 µM (inactive); in the assay with M19-MEL, 3.44 µM (inactive); in the assay with LXFL 529, 3.06 µM (inactive); in the assay on DMS-273, 1.74 µM (inactive); with SNB-78 it was 4 µM (inactive); with KM-20L2, 2.92 µM (inactive). The GI50 with HOP-18 is 2.59 µM (inactive).
For the compound `C=C1C(=O)OC2C1CCC(C)C1C=CC(=O)C12C` (stereo not drawn), the GI50 was 3.36 µM (inactive) in the assay on M19-MEL; 1.58 µM (inactive) with LXFL 529; 3.29 µM (inactive) in the assay with XF498; 4.08 µM (inactive) in the assay with DMS-273; 3.14 µM (inactive) in the assay with SNB-78; 3.61 µM (inactive) with KM-20L2. The GI50 in the assay on HOP-18 was 6.65 µM (inactive).
Regarding `COc1ccc(S(=O)(=O)N/N=C/C(=O)O)cc1`, the GI50 in the assay on M19-MEL was 955 µM (inactive); with XF498, 8.09 µM (inactive); in the assay on DMS-273, 518 µM (inactive); in the assay on SNB-78 it was 830 µM (inactive); with KM-20L2, > 1190 µM (inactive); with HOP-18 it was > 1060 µM (inactive). Also, the GI50 with DMS-114 is 490 µM (inactive).
For `COc1ccc(/C=C/COC(C)=O)cc1OC`, the GI50 with M19-MEL, in the assay on LXFL 529, in the assay on DMS-273, in the assay on SNB-78, in the assay on KM-20L2 and in the assay with DMS-114 was > 100 µM (inactive) in each case.
As for `O=C1CCCC(O)=C1SC1=C(O)CCCC1=O`, the GI50 in the assay on RXF 631, in the assay on M19-MEL, with DMS-273, in the assay with SNB-78 and with HOP-18 was > 100 µM (inactive) throughout.
For the compound `N#CC(NNC(=O)c1ccccc1O)c1ccccc1O` (stereo not drawn), the GI50 is 4.45 µM (inactive) in the assay with M19-MEL; 18.6 µM (inactive) in the assay on LXFL 529; 2.38 µM (inactive) in the assay with DMS-273; 38.3 µM (inactive) in the assay on SNB-78; 32.8 µM (inactive) in the assay on KM-20L2; 4.65 µM (inactive) with HOP-18.
With `CC(C)(C)c1ccc2c(c1)S(=O)(=O)Nc1cccc(c1)NS(=O)(=O)c1cc(C(C)(C)C)ccc1OCCOCCO2`, the GI50 in the assay on RXF 631, in the assay with M19-MEL, with DMS-273, with SNB-78, in the assay on HOP-18 and in the assay on DMS-114 was > 100 µM (inactive) each time.
For `O=[N+]([O-])c1cccc(-c2oc(/C=N/c3ccccc3)c([N+](=O)[O-])c2-c2cccc([N+](=O)[O-])c2)c1`, the GI50 in the assay with RXF 631, in the assay with M19-MEL, in the assay on LXFL 529, in the assay on DMS-273, with SNB-78 and in the assay on KM-20L2 was > 100 µM (inactive) throughout. The GI50 with DMS-114 is > 100 µM (inactive).
`Cc1ccc([S+]([O-])c2ccccc2[N+](=O)[O-])cc1` (stereo not drawn): the GI50 in the assay with RXF 631 is 35 µM (inactive); with M19-MEL, 10 µM (inactive); in the assay on DMS-273, 62.2 µM (inactive); with SNB-78 it was > 100 µM (inactive); in the assay on DMS-114 it was 36.5 µM (inactive).
As to `O=P1(O)c2ccccc2Nc2cc(C(F)(F)F)ccc21`, the GI50 with M19-MEL, with LXFL 529, with XF498, with DMS-273, in the assay on SNB-78 and with KM-20L2 was > 100 µM (inactive) in each case. Besides, the GI50 with HOP-18 and with DMS-114 was > 100 µM (inactive) in each case.
As for `Cc1ccc(S(=O)(=O)N/N=C(\c2nc3ccc(Cl)cc3[nH]c2=O)C(O)c2ccco2)cc1` (stereo not drawn), the GI50 is > 100 µM (inactive) with M19-MEL; > 100 µM (inactive) in the assay with LXFL 529; > 100 µM (inactive) in the assay on DMS-273; > 100 µM (inactive) in the assay on KM-20L2; > 100 µM (inactive) with HOP-18; 22.3 µM (inactive) with DMS-114.
For `C#CCn1c(=O)[nH]c(=O)c2cccnc21`, the GI50 in the assay on RXF 631, with LXFL 529, in the assay with XF498, in the assay on DMS-273, with SNB-78 and with KM-20L2 was > 100 µM (inactive) throughout. The values for the GI50 in the assay with HOP-18 and with DMS-114 were 63.5 µM (inactive) and > 10 µM (inactive), respectively.
With `OC1OC2COC(c3ccccc3)OC2C(O)C1O` (stereo not drawn), the GI50 in the assay with M19-MEL, with LXFL 529, with XF498, in the assay on DMS-273, in the assay on SNB-78 and in the assay with KM-20L2 was > 100 µM (inactive) each time. Moreover, the GI50 in the assay on HOP-18 and in the assay on DMS-114 was > 100 µM (inactive) in each case.
`CCOC(=O)C(C)(C)Oc1ccc(/C=C/C(=O)c2ccc(Cl)cc2)cc1`: the GI50 in the assay on RXF 631 was 19.5 µM (inactive); with M19-MEL it was 20 µM (inactive); in the assay on LXFL 529, 15.8 µM (inactive); in the assay on XF498, 18.8 µM (inactive); in the assay on DMS-273 it was 16.7 µM (inactive); in the assay on KM-20L2, 17.8 µM (inactive). Besides, the GI50 with DMS-114 was 17.4 µM (inactive).
Turning to `O=C(/C=C/c1ccccc1O)C(c1ccccc1)c1ccccc1`, the GI50 with RXF 631, in the assay on M19-MEL, with LXFL 529, in the assay with XF498, with DMS-273 and in the assay on SNB-78 was > 100 µM (inactive) throughout. Further, the GI50 in the assay with KM-20L2 is > 100 µM (inactive); in the assay with HOP-18, > 100 µM (inactive); with DMS-114 it was 63.2 µM (inactive).
As to `CS(=O)(=O)C1S(=O)(=O)OCCOS1(=O)=O`, the GI50 with RXF 631, with M19-MEL, in the assay with LXFL 529, in the assay on XF498, with DMS-273 and in the assay on SNB-78 was > 100 µM (inactive) throughout. In addition, the GI50 with KM-20L2 is > 100 µM (inactive); with HOP-18, 73.6 µM (inactive); in the assay on DMS-114 it was > 100 µM (inactive).
For `O=C(CCC/C(CC(=O)c1ccc(Br)cc1)=N\O)Nc1ccccc1`, the GI50 in the assay on M19-MEL is > 100 µM (inactive); in the assay on LXFL 529 it was > 100 µM (inactive); in the assay on XF498, > 100 µM (inactive); with SNB-78, > 100 µM (inactive); in the assay with KM-20L2 it was 91.4 µM (inactive); in the assay on HOP-18, > 100 µM (inactive). In addition, the GI50 in the assay with DMS-114 was 25.5 µM (inactive).
Turning to `O=C(O)C(CS)Nc1c2ccccc2nc2ccccc12` (stereo not drawn), the GI50 in the assay on M19-MEL was 57 µM (inactive); with LXFL 529 it was > 100 µM (inactive); with XF498, 24.9 µM (inactive); in the assay on DMS-273 it was 34.6 µM (inactive); with KM-20L2, 49.8 µM (inactive); in the assay with DMS-114, 27.7 µM (inactive).
For the compound `CC#CCC1CCC(OCC)=CC1=O` (stereo not drawn), the GI50 in the assay on RXF 631, in the assay on M19-MEL, in the assay on LXFL 529, in the assay on XF498, in the assay on DMS-273 and with SNB-78 was > 100 µM (inactive) throughout. The GI50 with KM-20L2, in the assay with HOP-18 and with DMS-114 was > 100 µM (inactive) throughout.
For `COc1ccc(Br)c(C(=O)N2CCc3ccccc32)c1N`, the GI50 in the assay with M19-MEL was 45.6 µM (inactive); in the assay with LXFL 529, 59.8 µM (inactive); in the assay on XF498, 31.9 µM (inactive); in the assay on DMS-273, 15.7 µM (inactive); in the assay on SNB-78, > 100 µM (inactive); in the assay with KM-20L2, 69.5 µM (inactive). Further, the values for the GI50 with HOP-18 and with DMS-114 were 47.9 µM (inactive) and 30.4 µM (inactive), respectively.
As for `Cc1cn(C2CC(O)C(COC(=O)c3ccccc3)O2)c(=O)[nH]c1=O` (stereo not drawn), the GI50 with RXF 631, in the assay with M19-MEL, in the assay on LXFL 529, in the assay with XF498, with DMS-273 and in the assay on SNB-78 was > 100 µM (inactive) each time. Further, the GI50 in the assay with KM-20L2 and with HOP-18 was > 100 µM (inactive) in each case.
Regarding `CC(C)(C)C(=O)/C=C/c1ccc(Oc2ccccc2)cc1`, the GI50 in the assay with M19-MEL was 23.5 µM (inactive); in the assay on LXFL 529, 13.2 µM (inactive); in the assay with XF498, 15.2 µM (inactive); with SNB-78, 25.5 µM (inactive); in the assay with KM-20L2, 17.2 µM (inactive); in the assay with HOP-18 it was 19.3 µM (inactive).
`COc1cc(C2c3cc4c(cc3[C@@H](Nc3ccc(C#N)cc3)C3COC(=O)[C@H]23)OCO4)cc(OC)c1O` (stereo partly drawn): the GI50 in the assay with XF498 is 3.2 µM (inactive); with SNB-78 it was 3.03 µM (inactive); in the assay with KM-20L2 it was 2.33 µM (inactive); in the assay with HOP-18 it was 1.16 µM (inactive); in the assay with DMS-114 it was 0.977 µM (active).
On to `CSc1cccc(-n2c3nc(=O)n(C)c(=O)c-3nc3ccccc32)c1`, for which the GI50 in the assay with M19-MEL is 2.07 µM (inactive); with LXFL 529, 13.3 µM (inactive); in the assay on XF498, 3.51 µM (inactive); in the assay with DMS-273 it was 1.66 µM (inactive); with SNB-78, 19.4 µM (inactive); in the assay with KM-20L2, 3.54 µM (inactive). For the same compound, the GI50 in the assay on HOP-18 was 13.2 µM (inactive); with DMS-114, 3.27 µM (inactive).

As a reminder, the GI50 is the concentration giving 50% growth inhibition.
